In PMC3574204 (Bioorganic & medicinal chemistry, 2013):
Blank lines part the entries; values can stand above or below the compound they belong to.

Experiments:
[1] = tested on: chicken embryo chorioallantoic membrane (CAM); assay: CAM assay of angiogenesis; details: in vivo
[2] = Whole animal toxicity assay; assay type: in vivo
[3] = target: VEGFR-2 (Homo sapiens, UniProt P35968); assay: Phosphotyrosine ELISA cytoblot, VEGFR-2
[4] = target: EGFR (Homo sapiens, UniProt P00533); assay: Phosphotyrosine ELISA cytoblot, EGFR inhibition in A431 cells; details: for EGFR inhibition improved, fold compared to the corresponding 2-amino analog: 14 vs 8, 15 vs 9, 17 vs 11
[5] = tested on: B16-F10 mouse melanoma tumors; assay: B16-F10 syngeneic tumor model; assay type: in vivo, athymic NCr nu/nu male mice; details: 10 mg/kg IP twice weekly

Chain of EGFR (P00533 25-1210): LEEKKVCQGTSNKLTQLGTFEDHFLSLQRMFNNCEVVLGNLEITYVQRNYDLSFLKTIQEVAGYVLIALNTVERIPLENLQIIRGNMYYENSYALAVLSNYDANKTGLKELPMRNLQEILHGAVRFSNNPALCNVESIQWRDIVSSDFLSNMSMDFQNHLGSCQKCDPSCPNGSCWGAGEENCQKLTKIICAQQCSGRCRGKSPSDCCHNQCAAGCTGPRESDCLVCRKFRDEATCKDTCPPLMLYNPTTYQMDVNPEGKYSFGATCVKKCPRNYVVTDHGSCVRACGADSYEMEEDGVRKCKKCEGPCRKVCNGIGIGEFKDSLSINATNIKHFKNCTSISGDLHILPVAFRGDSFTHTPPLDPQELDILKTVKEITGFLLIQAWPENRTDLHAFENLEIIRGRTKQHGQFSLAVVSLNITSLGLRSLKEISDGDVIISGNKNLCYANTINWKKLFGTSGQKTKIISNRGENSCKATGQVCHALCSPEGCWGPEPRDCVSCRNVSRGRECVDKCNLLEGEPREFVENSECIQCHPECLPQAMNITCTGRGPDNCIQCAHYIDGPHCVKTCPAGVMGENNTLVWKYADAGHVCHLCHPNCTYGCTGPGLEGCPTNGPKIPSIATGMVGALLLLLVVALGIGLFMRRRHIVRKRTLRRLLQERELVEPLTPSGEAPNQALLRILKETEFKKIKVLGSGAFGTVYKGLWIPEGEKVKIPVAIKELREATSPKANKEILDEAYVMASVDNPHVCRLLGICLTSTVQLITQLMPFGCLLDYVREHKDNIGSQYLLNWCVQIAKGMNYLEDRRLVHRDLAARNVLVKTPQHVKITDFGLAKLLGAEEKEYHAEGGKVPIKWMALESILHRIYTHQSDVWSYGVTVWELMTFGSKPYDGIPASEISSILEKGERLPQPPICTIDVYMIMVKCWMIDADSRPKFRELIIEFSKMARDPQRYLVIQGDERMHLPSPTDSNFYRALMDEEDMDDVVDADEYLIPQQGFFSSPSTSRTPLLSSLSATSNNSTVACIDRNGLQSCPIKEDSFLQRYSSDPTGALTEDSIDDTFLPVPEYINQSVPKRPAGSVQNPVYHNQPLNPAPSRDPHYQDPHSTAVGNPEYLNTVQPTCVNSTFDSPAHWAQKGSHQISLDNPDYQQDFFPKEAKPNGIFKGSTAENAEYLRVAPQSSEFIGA
Chain of VEGFR-2 (P35968 20-1356): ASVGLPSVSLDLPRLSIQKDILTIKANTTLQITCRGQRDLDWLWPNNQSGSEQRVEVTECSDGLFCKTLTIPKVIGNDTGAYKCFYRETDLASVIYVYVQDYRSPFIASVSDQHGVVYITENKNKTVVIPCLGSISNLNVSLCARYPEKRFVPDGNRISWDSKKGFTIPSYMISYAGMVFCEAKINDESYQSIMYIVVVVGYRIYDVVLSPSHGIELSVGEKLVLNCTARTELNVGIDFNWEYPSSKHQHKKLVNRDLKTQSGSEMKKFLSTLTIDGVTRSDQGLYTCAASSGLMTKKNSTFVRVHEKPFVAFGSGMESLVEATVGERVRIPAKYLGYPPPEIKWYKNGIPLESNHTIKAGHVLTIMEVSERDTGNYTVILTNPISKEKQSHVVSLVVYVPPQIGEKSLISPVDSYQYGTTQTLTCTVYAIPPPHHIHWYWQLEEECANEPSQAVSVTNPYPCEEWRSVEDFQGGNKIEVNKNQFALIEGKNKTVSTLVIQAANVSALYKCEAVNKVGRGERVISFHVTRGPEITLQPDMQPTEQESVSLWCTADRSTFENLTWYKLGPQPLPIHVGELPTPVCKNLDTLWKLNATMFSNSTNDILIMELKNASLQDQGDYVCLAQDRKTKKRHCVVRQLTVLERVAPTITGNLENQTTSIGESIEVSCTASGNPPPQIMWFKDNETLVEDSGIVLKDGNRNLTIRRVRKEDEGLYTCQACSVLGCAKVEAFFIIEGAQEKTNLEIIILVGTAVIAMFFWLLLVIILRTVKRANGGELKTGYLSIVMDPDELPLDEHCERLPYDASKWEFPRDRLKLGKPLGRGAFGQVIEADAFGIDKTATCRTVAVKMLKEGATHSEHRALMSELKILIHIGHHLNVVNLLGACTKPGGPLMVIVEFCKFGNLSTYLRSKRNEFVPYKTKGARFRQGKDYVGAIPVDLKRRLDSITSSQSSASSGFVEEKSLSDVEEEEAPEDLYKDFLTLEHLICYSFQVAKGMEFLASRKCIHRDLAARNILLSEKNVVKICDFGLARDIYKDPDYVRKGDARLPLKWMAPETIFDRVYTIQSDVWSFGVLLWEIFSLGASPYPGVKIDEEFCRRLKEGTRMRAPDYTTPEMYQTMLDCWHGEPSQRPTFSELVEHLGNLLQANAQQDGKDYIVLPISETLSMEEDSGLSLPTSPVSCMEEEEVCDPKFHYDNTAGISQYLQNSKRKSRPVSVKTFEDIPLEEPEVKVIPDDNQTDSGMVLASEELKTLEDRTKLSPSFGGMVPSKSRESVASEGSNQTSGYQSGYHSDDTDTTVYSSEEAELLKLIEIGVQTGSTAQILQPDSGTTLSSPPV

SMILES: Nc1nc(Nc2ccc(F)c(Br)c2)c2cc(CCc3ccccn3)[nH]c2n1 [Compound 8, N^4-(3-bromo,4-fluorophenyl)-6-(2-pyridin-2-yl-ethyl)-7H-pyrrolo[2,3-d]pyrimidine-2,4-diamine]
CAM angiogenesis assay, fold better than semaxanib (27) [1]: 1.2 fold
weight loss ([2]; 7.5 or 10 mg/kg twice weekly, compared to untreated): no weight loss
weight loss ([2]; 20, 17, and 15 mg/kg twice weekly, 6 week time point): significant
VEGFR-2 inhibition, fold improvement in activity compared to 7 [3]: 2 fold

EGFR inhibition improved, fold compared to the corresponding 2-amino analog [4]: 16 fold
SMILES: CC(C)(C)C(=O)Nc1nc(Nc2ccc(F)c(Br)c2)c2cc(CCc3ccccn3)[nH]c2n1 [Compound 14, N-{4-[(3-bromo,4-fluorophenyl)amino]-6-(2-pyridin-2-yl-ethyl)-7H-pyrrolo[2,3-d]pyrimidin-2-yl}the-2,2-dimethylpropanamide]

EGFR inhibition improved, fold compared to the corresponding 2-amino analog [4]: 6.5 fold
SMILES: CC(C)(C)C(=O)Nc1nc(Nc2ccc(F)c(Cl)c2)c2cc(CCc3ccccn3)[nH]c2n1 [Compound 15, N-{4-[(3-chloro,4-fluorophenyl)amino]-6-(2-pyridin-2-yl-ethyl)-7H-pyrrolo[2,3-d]pyrimidin-2-yl}-2,2-dimethylpropanamide]

EGFR inhibitory assay, result in words [4]: inactive
SMILES: C#Cc1cccc(Nc2nc(NC(=O)C(C)(C)C)nc3[nH]c(CCc4ccccn4)cc23)c1 [Compound 16, N-{4-[(3-ethynylphenyl)amino]-6-(2-pyridin-2-yl-ethyl)-7H-pyrrolo[2,3-d]pyrimidin-2-yl}-2,2-dimethylpropanamide]

EGFR inhibition improved, fold compared to the corresponding 2-amino analog [4]: 1.4 fold
SMILES: CC(C)(C)C(=O)Nc1nc(Nc2cccc(C(F)(F)F)c2)c2cc(CCc3ccccn3)[nH]c2n1 [Compound 17, N-{4-[(3-trifluoromethylphenyl)amino]-6-(2-pyridin-2-yl-ethyl)-7H-pyrrolo[2,3-d]pyrimidin-2-yl}-2,2-dimethylpropanamide]

EGFR inhibition, fold less active than 12 [4]: 1.7 fold
SMILES: CC(C)(C)C(=O)Nc1nc(Nc2ccc(F)c(C(F)(F)F)c2)c2cc(CCc3ccccn3)[nH]c2n1 [Compound 18, N-{4-[(3-trifluoromethyl,4-fluorophenyl)amino]-6-(2-pyridin-2-yl-ethyl)-7H-pyrrolo[2,3-d]pyrimidin-2-yl}-2,2-dimethylpropanamide]

SMILES: CN(Cc1cnc2nc(N)nc(N)c2n1)c1ccc(C(=O)N[C@@H](CCC(=O)O)C(=O)O)cc1 [MTX, methotrexate]
B16-F10 primary tumor growth [5]: slightly better at inhibiting primary tumor growth as compared to 8
decrease in vascular density of B16-F10 tumors ([5]; compared to solvent treated animals): statistically significant
tumor volume ([5]; compared to untreated animals): significantly less increase in tumor volume
